Reference: US20240002375A1, “2-(INDAZOL-5-YL)-6-(PIPERIDIN-4-YL)-1,7-NAPHTHYRIDINE DERIVATIVES AND RELATED COMPOUNDS AS MODULATORS FOR SPLICING NUCLEIC ACIDS AND FOR THE TRE” (REMIX THERAPEUTICS INC., priority 2020, published 2024)

What was measured:
Assay type in all cases: cell-based
[1] = tested on: SMN2 CJ mRNA; experiment: Gene panel canonical junction qPCR splicing assay, SMN2; details: Table 4, read-out: SMN2 IC50 (decrease in CJ mRNA levels)
Protocol: (§1) Compounds described herein were used to modulate RNA transcript abundance in cells. The expression of a target mRNA was measured by detecting the formation of an exon-exon junction in the canonical transcript (CJ). A compound mediated exon-inclusion event was detected by observing an increase in formation of a new junction with an alternative exon (AJ). Real-time qPCR assays were used to detect these splicing switches and interrogate the potency of various compounds towards different target genes. A high-throughput real time quantitative PCR (RT-qPCR) assay was developed to measure these two isoforms of the mRNA (CJ and AJ) for an exemplary gene, HTT, together with a control housekeeping gene, GAPDH or GUSB or PPIA, used for normalization. Briefly, the A673 or K562 cell line was treated with various compounds described herein (e.g., compounds of Formula (I) or (II)). After treatment, the levels of the HTT mRNA targets were determined from each sample of cell lysate by cDNA synthesis followed by qPCR. The data analysis was performed by first determining the ΔCt vs the housekeeper gene. This ΔCt was then normalized against the DMSO control (ΔΔCt) and converted to RQ (relative quantification) using the 2^(−ΔΔCt) equation. The RQ were then converted to a percentage response by arbitrarily setting an assay window of 3.5 ΔCt for HTT-CJ and an assay window of 9 ΔCt for HTT-AJ. […] The percentage response was then fitted to the 4 parametric logistic equation to evaluate the concentration dependence of compound treatment. The increase in AJ mRNA is reported as AC50 (compound concentration having 50% response in AJ increase) while the decrease in CJ mRNA levels is reported as IC50 (compound concentration having 50% response in CJ decrease). Additional studies were carried out for a larger panel of genes using the protocol provided above. The junction between flanking upstream and downstream exons was used to design canonical junction qPCR assays. At least one of the forward primer, reverse primer or the CY5-labeled 5′ nuclease probe (with 3′ quencher such as ZEN/Iowa Black FQ) was designed to overlap with the exon junction to capture the CJ mRNA transcript. BLAST was used to confirm the specificity of the probeset and parameters such as melting temperature, GC content, amplicon size, and primer dimer formation are considered during their design. Data for the decrease in CJ mRNA levels for three exemplary genes (HTT, SMN2, and Target C) analyzed in this panel are reported as IC50 (compound concentration having 50% response in CJ decrease).

[2] = tested on: HTT mRNA; experiment: Splicing assay (RT-qPCR) of HTT mRNA alternative junction (AJ) and canonical junction (CJ); details: A673 or K562 cells, 24 hours; for IC50: decrease in CJ mRNA, read-out: HTT CJ IC50; for AC50: increase in AJ mRNA, read-out: HTT AJ AC50
Protocol: Compounds described herein were used to modulate RNA transcript abundance in cells. The expression of a target mRNA was measured by detecting the formation of an exon-exon junction in the canonical transcript (CJ). A compound mediated exon-inclusion event was detected by observing an increase in formation of a new junction with an alternative exon (AJ). Real-time qPCR assays were used to detect these splicing switches and interrogate the potency of various compounds towards different target genes. A high-throughput real time quantitative PCR (RT-qPCR) assay was developed to measure these two isoforms of the mRNA (CJ and AJ) for an exemplary gene, HTT, together with a control housekeeping gene, GAPDH or GUSB or PPIA, used for normalization. Briefly, the A673 or K562 cell line was treated with various compounds described herein (e.g., compounds of Formula (I) or (II)). After treatment, the levels of the HTT mRNA targets were determined from each sample of cell lysate by cDNA synthesis followed by qPCR.
Materials: • Cells-to-CT 1-step kit: ThermoFisher A25602, Cells-to-CT lysis reagent: ThermoFisher 4391851C, TagMan™ Fast Virus 1-Step Master Mix: ThermoFisher 4444436 • GAPDH: VIC-PL, ThermoFisher 4326317E (Assay: Hs99999905_ml)—used for K562/suspension cell lines • GUSB: VIC-PL, ThermoFisher 4326320E (Assay: Hs99999908 ml)—used for K562/suspension cell lines • PPIA: VIC-PL, ThermoFisher 4326316E (Assay: Hs99999904 ml)—used for A673/adherent cell lines
The A673 cell line was cultured in DMEM with 10% FBS. Cells were diluted with full growth media and plated in a 96-well plate (15,000 cells in 100 ul media per well). The plate was incubated at 37° C. with 5% CO2 for 24 hours to allow cells to adhere. An 11-point 3-fold serial dilution of the compounds was made in DMSO then diluted in media in an intermediate plate. Compounds were transferred from the intermediate plate to the cell plate with the top dose at a final concentration of 10 uM in the well. Final DMSO concentration was kept at or below 0.25%. The cell plate was returned to the incubator at 37° C. with 5% CO2 for an additional 24 hours.
The K562 cell line was cultured in IMDM with 10% FBS. For K562, cells were diluted with full growth media and plated in either a 96-well plate (50,000 cells in 50 uL media per well) or a 384-well plate (8,000-40,000 cells in 45 uL media per well). An 11-point 3-fold serial dilution of the compounds were made in DMSO then diluted in media in an intermediate plate. Compound was transferred from the intermediate plate to the cell plate with the top dose at a final concentration of 10 uM in the well. Final DMSO concentration was kept at or below 0.25%. Final volume was 100 uL for 96-well plate and 50 uL for 384-well plate. The cell plate was then placed in an incubator at 37° C. with 5% CO2 for 24 hours.
The cells were then gently washed with 50 uL-100 uL cold PBS before proceeding to addition of lysis buffer. 30 uL-50 uL of room temperature lysis buffer with DNAse I (and optionally RNAsin) was added to each well. Cells were shaken/mixed thoroughly at room temperature for 5-10 minutes for lysis to take place and then 3 uL-5 uL of room temperature stop solution was added and wells were shaken/mixed again. After 2-5 minutes, the cell lysate plate was transferred to ice for RT-qPCR reaction setup. The lysates could also be frozen at −80° C. for later use.
In some cases, a direct lysis buffer was used. An appropriate volume of 3X lysis buffer (10 mM Tris, 150 mM NaCl, 1.5%-2.5% Igepal and 0.1-1 U/uL RNAsin, pH 7.4) was directly added to either K562 or A673 cells in media and mixed by pipetting 3 times. The plates were then incubated at room temperature with shaking/rocking for 20-50 minutes to allow for lysis to take place. After this time, the cell lysate plate was transferred to ice to set up for the RT-qPCR reactions. The lysates could also be frozen at −80° C. for later use. […]

[3] = tested on: Target C CJ mRNA; experiment: Gene panel canonical junction qPCR splicing assay, Target C; details: Table 4, read-out: Target C IC50 (decrease in CJ mRNA levels)
Protocol: as §1

[4] = tested on: HTT CJ mRNA; experiment: Gene panel canonical junction qPCR splicing assay, HTT; details: Table 4, read-out: HTT IC50 (decrease in CJ mRNA levels)
Protocol: as §1

With Cn1cc2cc(-c3ccc4nc(N5CC[C@@H](NC6(C)CC6)C5)ccc4n3)c(O)c(F)c2n1 (single isomer, unassigned) [Compound 223] the IC50 [1] was under 100 nM, the IC50 [2] was under 100 nM and the AC50 [2] was under 100 nM. The IC50 [3] was under 100 nM and the IC50 [4] was under 100 nM.

In the case of Cc1c(O)c(-c2ccc3nc(N4CC[C@@H](NC5(C)CC5)C4)ccc3n2)cc2cn(C)nc12 (single isomer, unassigned) [Compound 225], the IC50 [1] is reported as under 100 nM, the IC50 [2] is reported as under 100 nM and the AC50 [2] is reported as under 100 nM. It also gave an IC50 [3] of under 100 nM and an IC50 [4] of under 100 nM.

Cc1c(O)c(-c2ccc3nc(N4CC[C@H](NC5(C)CC5)C4)ccc3n2)cc2cn(C)nc12 (single isomer, unassigned) [Compound 226, 2,7-dimethyl-5-{6-[(35)-3-[(1-methylcyclopropyl)amino]pyrrolidin-1-yl]-1,5-naphthyridin-2-yl}indazol-6-ol] gave an IC50 [1] of under 100 nM, an IC50 [2] of under 100 nM and an AC50 [2] of under 100 nM. For the same molecule, the IC50 [3] was under 100 nM and the IC50 [4] was under 100 nM.

For Cc1nc2cc(O)c(-c3ccc4nc(N5CCC(NC6CCC6)C5)ccc4n3)cc2o1 (single isomer, unassigned) [Compound 229, 6-{6-[3-(cyclobutylamino)pyrrolidin-1-yl]-1,5-naphthyridin-2-yl}-2-methyl-1,3-benzoxazol-5-ol], the IC50 [1] was under 100 nM, the IC50 [2] was under 100 nM and the AC50 [2] was under 100 nM. The IC50 [3] was 100 to 1000 nM and the IC50 [4] was under 100 nM.

Work on Cc1nc2cc(O)c(-c3ccc4nc(N5CCC(NC6CCC6)C5)ccc4n3)cc2o1 (single isomer, unassigned) [Compound 230, 6-{6-[3-(cyclobutylamino)pyrrolidin-1-yl]-1,5-naphthyridin-2-yl}-2-methyl-1,3-benzoxazol-5-ol] yielded an IC50 [1] of under 100 nM, an IC50 [2] of under 100 nM and an AC50 [2] of under 100 nM. It also gave an IC50 [3] of 100 to 1000 nM and an IC50 [4] of under 100 nM.

Molecule Cc1nc2cc(O)c(-c3ccc4nc(N5CC[C@@H](NC(C)C)C5)ccc4n3)cc2o1 (single isomer, unassigned) [Compound 232, 6-{6-[3-(isopropylamino)pyrrolidin-1-yl]-1,5-naphthyridin-2-yl}-2-methyl-1,3-benzoxazol-5-ol] has an IC50 [1] of under 100 nM, an IC50 [2] of under 100 nM and an AC50 [2] of under 100 nM. The IC50 [3] was under 100 nM and the IC50 [4] was under 100 nM.

Cc1nc2cc(O)c(-c3ccc4nc(N5CC[C@H](NC(C)C)C5)ccc4n3)cc2o1 (single isomer, unassigned) [Compound 233, 6-{6-[3-(isopropylamino)pyrrolidin-1-yl]-1,5-naphthyridin-2-yl}-2-methyl-1,3-benzoxazol-5-ol] gave an IC50 [1] of under 100 nM, an IC50 [2] of under 100 nM and an AC50 [2] of under 100 nM. For the same molecule, the IC50 [3] was under 100 nM and the IC50 [4] was under 100 nM.

Work on Cc1nc2c(C)c(O)c(-c3ccc4nc(N5CCC(NC6CCC6)C5)ccc4n3)cc2o1 (single isomer, unassigned) [Compound 237, 6-{6-[3-(cyclobutylamino)pyrrolidin-1-yl]-1,5-naphthyridin-2-yl}-2,4-dimethyl-1,3-benzoxazol-5-ol] yielded an IC50 [1] of under 100 nM, an IC50 [2] of under 100 nM and an AC50 [2] of under 100 nM. It also gave an IC50 [3] of under 100 nM and an IC50 [4] of under 100 nM.

For Cc1nc2c(F)c(O)c(-c3ccc4nc(N5CC[C@@H](NC6CC6)C5)ccc4n3)cc2o1 (single isomer, unassigned) [Compound 253, 6-{6-[3-(cyclopropylamino)pyrrolidin-1-yl]-1,5-naphthyridin-2-yl}-4-fluoro-2-methyl-1,3-benzoxazol-5-ol], the IC50 [1] was under 100 nM, the IC50 [2] was under 100 nM and the AC50 [2] was under 100 nM. The IC50 [3] was under 100 nM and the IC50 [4] was under 100 nM.

Cc1nc2c(F)c(O)c(-c3ccc4nc(N5CC[C@H](NC6CC6)C5)ccc4n3)cc2o1 (single isomer, unassigned) [Compound 254, 6-{6-[3-(cyclopropylamino)pyrrolidin-1-yl]-1,5-naphthyridin-2-yl}-4-fluoro-2-methyl-1,3-benzoxazol-5-ol] gave an IC50 [1] of under 100 nM, an IC50 [2] of under 100 nM and an AC50 [2] of under 100 nM. It also gave an IC50 [3] of under 100 nM and an IC50 [4] of under 100 nM.

With Cc1nc2c(F)c(O)c(-c3ccc4nc(N5CC[C@H](NC(C)(C)C)C5)ccc4n3)cc2o1 (single isomer, unassigned) [Compound 255, 6-{6-[3-(tert-butylamino)pyrrolidin-1-yl]-1,5-naphthyridin-2-yl}-4-fluoro-2-methyl-1,3-benzoxazol-5-ol] the IC50 [1] was under 100 nM, the IC50 [2] was under 100 nM and the AC50 [2] was under 100 nM. The IC50 [3] was under 100 nM and the IC50 [4] was under 100 nM.

For Cc1nc2c(F)c(O)c(-c3ccc4nc(N5CC[C@@H](NC(C)(C)C)C5)ccc4n3)cc2o1 (single isomer, unassigned) [Compound 256, 6-{6-[3-(tert-butylamino)pyrrolidin-1-yl]-1,5-naphthyridin-2-yl}-4-fluoro-2-methyl-1,3-benzoxazol-5-ol], the IC50 [1] was under 100 nM, the IC50 [2] was under 100 nM and the AC50 [2] was under 100 nM. It also gave an IC50 [3] of under 100 nM and an IC50 [4] of under 100 nM.

With Cc1nc2cc(O)c(-c3ccc4nc(N5CC[C@H](NC6(C)CC6)C5)ccc4n3)cc2o1 (single isomer, unassigned) [Compound 257, 2-methyl-6-(6-{3-[(1-methylcyclopropyl)amino]pyrrolidin-1-yl}-1,5-naphthyridin-2-yl)-1,3-benzoxazol-5-ol] the IC50 [1] was under 100 nM, the IC50 [2] was under 100 nM and the AC50 [2] was under 100 nM. For the same molecule, the IC50 [3] was under 100 nM and the IC50 [4] was under 100 nM.
